Laboratory results as given in patent US9181259B2 (LEO PHARMA A/S, priority 2012, dated 2015).

Target: T1, NK1 receptor (Homo sapiens, UniProt P25103)
T1 construct: Measurement of NK1 Receptor Mediated Intracellular [Ca^2+]; Mobilization in U251 MG Cells Using FLIPR; endogenous in cells; host or cells: U251 MG cells
Assay: NK1 receptor mediated intracellular [Ca2+] mobilization in U251 MG cells using FLIPR
Format: cell-based
Settings: antagonist potency against Substance P (EC80), normalized to 100 nM Aprepitant, read-out: U251MG (FLIPR pIC50) (converted)
Description: Measurement of NK1 Receptor Mediated Intracellular [Ca^2+] Mobilization in U251 MG Cells Using FLIPR
U251 MG cells were seeded into black walled clear-bottom 384-well plates (Greiner Bio-One GmbH, Frickenhausen, Germany) at a density of 15,000 cells/well in 50 μl culture medium and cultured overnight in a 37° C. 5% CO2 incubator. The cells were then loaded with the calcium sensitive dye Fluo-4 (Invitrogen) at 1 μM in buffer, containing 0.04%
Pluronic F-127 (Sigma-Aldrich), and 2.5 mM probenecid (Sigma-Aldrich) for 60 min in a humidified atmosphere of 5% CO2. Thereafter, cells were washed three times in washing buffer containing 20 mM HEPES and 2.5 mM probenecid pH 7.3. Serial dilutions of test compounds in assay buffer containing 2% dimethyl sulfoxide (final concentration in the cell plate is 0.5% DMSO) and/or agonist were then automatically pipetted into each test well, and the peak fluorescence intensity was recorded (lex, 488 nm; lem, 540 nm) by the FLIPR instrument (Molecular Devices) for approximately 5 min. To measure antagonist potency, cell plates were first incubated with the test compound and intracellular fluorescence recorded for 5 minutes to check a potential agonist effect of the test compound. Cell plates were quickly removed from the FLIPR instrument and incubated for additional 10 minutes at 37° C. before being moved back to the FLIPR instrument for Substance P (EC80) addition. The response was measured as the peak relative fluorescence change after agonist addition.
The IC50 value is defined as the molar concentration of a test compound that produces a response midway between the fitted top and the fitted bottom. pIC50=−log IC50
Formula is listed as follows: Fit(% Effect calculated)=(A+((B−A)/(1+((C/X)^D)))) • A: bottom value • B: top value • C: […] • D: Hill slope coefficient
Ref: Sullivan E, Tucker E M, and Dale I L. Measurement of [Ca^2+] using the Fluorometric Imaging Plate Reader (FLIPR). Methods Mol Biol 114:125-133, 1999.
Compounds of the present invention were tested according to example 120.

T1 sequence (P25103 whole entry): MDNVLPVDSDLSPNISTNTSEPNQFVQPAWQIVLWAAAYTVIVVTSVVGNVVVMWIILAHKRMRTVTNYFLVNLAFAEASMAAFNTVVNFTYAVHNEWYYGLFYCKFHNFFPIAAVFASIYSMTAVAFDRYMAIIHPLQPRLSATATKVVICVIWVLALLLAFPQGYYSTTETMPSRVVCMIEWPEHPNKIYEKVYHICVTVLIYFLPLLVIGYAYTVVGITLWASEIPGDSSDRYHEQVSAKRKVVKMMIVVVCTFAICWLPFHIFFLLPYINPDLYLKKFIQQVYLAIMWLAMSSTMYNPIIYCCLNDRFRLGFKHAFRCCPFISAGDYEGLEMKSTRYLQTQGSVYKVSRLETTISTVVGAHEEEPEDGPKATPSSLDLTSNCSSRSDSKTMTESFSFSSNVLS

Q: With `Cc1cc(C)cc(CN(C)C(=O)N2CCN3C(=O)CCC3C2c2ccccc2C)c1` (single isomer, unassigned) [Compound 2, N-[(3,5-dimethylphenyl)methyl]-N-methyl-1-(2-methylphenyl)-6-oxo-octahydropyrrolo[1,2-a]piperazine-2-carboxamide] as the compound, how does the IC50 read?
A: Its IC50 is 77.6 nM.

Q: `Cc1ccccc1C1C2CCCN2CCN1C(=O)N(C)[C@H](C)c1cc(C(F)(F)F)cc(C(F)(F)F)c1` (single isomer, unassigned) [Compound 64] was tested. Which IC50 did it give?
A: The IC50 was 42.7 nM.

Q: How did the IC50 turn out when `Cc1ccccc1[C@H]1[C@@H]2CC(CCO)(CCO)C(=O)N2CCN1C(=O)N(C)Cc1cccc(C(F)(F)F)c1` [Compound 80, (1S,8aS)-7,7-bis(2-hydroxyethyl)-N-methyl-6-oxo-1-o-tolyl-N-(3-(trifluoromethyl)benzyl)hexahydropyrrolo[1,2-a]pyrazine-2(1H)-carboxamide] was run?
A: Its IC50 is 0.468 nM.

Q: For `Cc1ccccc1C1C2CC(CO)CN2CCN1C(=O)N(C)Cc1cc(C(F)(F)F)cc(C(F)(F)F)c1` (single isomer, unassigned) [Compound 48, N-{[3,5-bis(trifluoromethyl)phenyl]methyl}-7-(hydroxymethyl)-N-methyl-1-(2-methylphenyl)-octahydropyrrolo[1,2-a]piperazine-2-carboxamide], which IC50 is on record?
A: The IC50 was 0.224 nM.

Q: For `Cc1ccccc1C1C2CC(CCO)C(=O)N2CCN1C(=O)N(C)C(CCO)c1cc(C(F)(F)F)cc(C(F)(F)F)c1` (racemic) [Compound 33, N-{1-[3,5-bis(trifluoromethyl)phenyl]-3-hydroxypropyl}-7-(2-hydroxyethyl)-N-methyl-1-(2-methylphenyl)-6-oxo-octahydropyrrolo[1,2-a]piperazine-2-carboxamide], which IC50 is on record?
A: The IC50 was 0.158 nM.

Q: How did the IC50 turn out when `Cc1ccccc1C1C2CC(C)(C(=O)O)C(=O)N2CCN1C(=O)N(C)Cc1cc(C(F)(F)F)cc(C(F)(F)F)c1` (centres unmarked) [Compound 8, 2-({[3,5-bis(trifluoromethyl)phenyl]methyl}(methyl)carbamoyl)-7-methyl-1-(2-methylphenyl)-6-oxo-octahydropyrrolo[1,2-a]piperazine-7-carboxylic acid] was run?
A: The IC50 was 61.7 nM.

Q: For `Cc1ccccc1C1C2CC(CCO)(CCO)C(=O)N2CCN1C(=O)N(C)Cc1cc(C(F)(F)F)cc(C(F)(F)F)c1` (racemic) [Compound 42, N-{[3,5-bis(trifluoromethyl)phenyl]methyl}-7,7-bis(2-hydroxyethyl)-N-methyl-1-(2-methylphenyl)-6-oxo-octahydropyrrolo[1,2-a]piperazine-2-carboxamide], which IC50 is on record?
A: Its IC50 is 0.0955 nM.

Q: With `Cc1ccccc1C1C2CC(CN3CCOCC3)C(=O)N2CCN1C(=O)N(C)[C@H](C)c1cc(C(F)(F)F)cc(C(F)(F)F)c1` (single isomer, unassigned) [Compound 74] as the compound, how does the IC50 read?
A: Its IC50 is 0.0891 nM.

Q: How did the IC50 turn out when `Cc1ccccc1[C@H]1[C@@H]2CC(CCO)(CCO)C(=O)N2CCN1C(=O)N(C)C(CCO)c1cc(C(F)(F)F)cc(C(F)(F)F)c1` (single isomer, unassigned) [Compound 82] was run?
A: Its IC50 is 0.112 nM.

Q: With `Cc1ccccc1C1C2CC(CO)CN2CCN1C(=O)N(C)[C@H](C)c1cc(C(F)(F)F)cc(C(F)(F)F)c1` (single isomer, unassigned) [Compound 68] as the compound, how does the IC50 read?
A: Its IC50 is 4.47 nM.

Q: How did the IC50 turn out when `Cc1ccccc1[C@@H]1[C@H]2CCC(=O)N2CCN1C(=O)N(C)[C@H](C)c1cc(C(F)(F)F)cc(C(F)(F)F)c1` (single isomer, unassigned) [Compound 10] was run?
A: Its IC50 is 12.9 nM.

Q: With `Cc1ccccc1C1C2CC(CN3CCOCC3)C(=O)N2CCN1C(=O)N(C)[C@H](C)c1cc(C(F)(F)F)cc(C(F)(F)F)c1` (single isomer, unassigned) [Compound 72] as the compound, how does the IC50 read?
A: The IC50 was 8.13 nM.

Q: `Cc1ccccc1C1C2CC3(CCN(C)CC3)C(=O)N2CCN1C(=O)N(C)Cc1cc(C(F)(F)F)cc(C(F)(F)F)c1` (single isomer, unassigned) [Compound 46, N-{[3,5-bis(trifluoromethyl)phenyl]methyl}-N,1-dimethyl-4′-(2-methylphenyl)-1′-oxo-hexahydro-1′H-spiro[piperidine-4,2′-pyrrolo[1,2-a]piperazine]-5′-carboxamide] was tested. Which IC50 did it give?
A: The IC50 was 4.57 nM.

Q: For `Cc1ccccc1C1C2CCC(=O)N2CCN1C(=O)N(C)Cc1cc(C(F)(F)F)cc(C(F)(F)F)c1` (single isomer, unassigned) [Compound 17, N-{[3,5-bis(trifluoromethyl)phenyl]methyl}-N-methyl-1-(2-methylphenyl)-6-oxo-octahydropyrrolo[1,2-a]piperazine-2-carboxamide], which IC50 is on record?
A: Its IC50 is 28.2 nM.

Q: With `Cc1ccccc1C1C2CC(CO)CN2CCN1C(=O)N(C)[C@H](C)c1cc(C(F)(F)F)cc(C(F)(F)F)c1` (single isomer, unassigned) [Compound 69] as the compound, how does the IC50 read?
A: The IC50 was 0.214 nM.

Q: `Cc1ccccc1[C@H]1[C@@H]2CC(CCO)(CCO)C(=O)N2CCN1C(=O)N(C)C(CCO)c1cc(C(F)(F)F)cc(C(F)(F)F)c1` (single isomer, unassigned) [Compound 81] was tested. Which IC50 did it give?
A: The IC50 was 0.12 nM.

Q: How did the IC50 turn out when `Cc1ccccc1C1C2CC(CN3CCOCC3)C(=O)N2CCN1C(=O)N(C)[C@H](C)c1cc(C(F)(F)F)cc(C(F)(F)F)c1` (single isomer, unassigned) [Compound 73] was run?
A: The IC50 was 0.107 nM.

Q: How did the IC50 turn out when `Cc1ccccc1C1C2CCCN2CCN1C(=O)N(C)Cc1cc(C(F)(F)F)cc(C(F)(F)F)c1` (single isomer, unassigned) [Compound 62, N-{[3,5-bis(trifluoromethyl)phenyl]methyl}-N-methyl-1-(2-methylphenyl)-octahydropyrrolo[1,2-a]piperazine-2-carboxamide] was run?
A: Its IC50 is 0.955 nM.

Q: `Cc1ccccc1C1C2CC(CN3CCCC3)C(=O)N2CCN1C(=O)N(C)Cc1cc(C(F)(F)F)cc(C(F)(F)F)c1` (single isomer, unassigned) [Compound 31, N-{[3,5-bis(trifluoromethyl)phenyl]methyl}-N-methyl-1-(2-methylphenyl)-6-oxo-7-(pyrrolidin-1-ylmethyl)-octahydropyrrolo[1,2-a]piperazine-2-carboxamide] was tested. Which IC50 did it give?
A: Its IC50 is 0.513 nM.

Q: For `COC(=O)C1(C)CC2C(c3ccccc3C)N(C(=O)N(C)Cc3cc(C(F)(F)F)cc(C(F)(F)F)c3)CCN2C1=O` (centres unmarked) [Compound 11, Methyl 2-({[3,5-bis(trifluoromethyl)phenyl]methyl}(methyl)carbamoyl)-7-methyl-1-(2-methylphenyl)-6-oxo-octahydropyrrolo{1,2-a}piperazine-7-carboxylate], which IC50 is on record?
A: The IC50 was 0.813 nM.

Q: `Cc1ccccc1C1C2CC(CO)CN2CCN1C(=O)N(C)[C@H](C)c1cc(C(F)(F)F)cc(C(F)(F)F)c1` (single isomer, unassigned) [Compound 67] was tested. Which IC50 did it give?
A: The IC50 was 0.204 nM.

Q: For `Cc1ccccc1C1C2CC(CO)C(=O)N2CCN1C(=O)N(C)Cc1cc(C(F)(F)F)cc(C(F)(F)F)c1` (single isomer, unassigned) [Compound 23, N-{[3,5-bis(trifluoromethyl)phenyl]methyl}-7-(hydroxymethyl)-N-methyl-1-(2-methylphenyl)-6-oxo-octahydropyrrolo[1,2-a]piperazine-2-carboxamide], which IC50 is on record?
A: The IC50 was 0.0776 nM.

Q: `Cc1ccccc1C1C2CC(CN3CCOCC3)C(=O)N2CCN1C(=O)N(C)Cc1cc(C(F)(F)F)cc(C(F)(F)F)c1` (single isomer, unassigned) [Compound 40] was tested. Which IC50 did it give?
A: Its IC50 is 7.76 nM.

Q: For `Cc1ccccc1C1C2CC(CCO)(CCO)C(=O)N2CCN1C(=O)N(C)[C@H](C)c1cc(C(F)(F)F)cc(C(F)(F)F)c1` (single isomer, unassigned) [Compound 53], which IC50 is on record?
A: The IC50 was 2.45 nM.

Q: Which IC50 does the source give for `Cc1ccccc1C1C2CC(CO)C(=O)N2CCN1C(=O)N(C)[C@H](C)c1cc(C(F)(F)F)cc(C(F)(F)F)c1` (single isomer, unassigned) [Compound 57] here?
A: Its IC50 is 1.51 nM.

Q: With `COC(=O)C1(C)CC2C(c3ccccc3C)N(C(=O)N(C)Cc3cc(C(F)(F)F)cc(C(F)(F)F)c3)CCN2C1=O` (single isomer, unassigned) [Compound 12, Methyl 2-({[3,5-bis(trifluoromethyl)phenyl]methyl}(methyl)carbamoyl)-7-methyl-1-(2-methylphenyl)-6-oxo-octahydropyrrolo{1,2-a}piperazine-7-carboxylate] as the compound, how does the IC50 read?
A: The IC50 was 1.78 nM.

Q: `Cc1ccccc1C1C2CC(CCO)C(=O)N2CCN1C(=O)N(C)C(CCO)c1cc(C(F)(F)F)cc(C(F)(F)F)c1` (single isomer, unassigned) [Compound 35, N-{1-[3,5-bis(trifluoromethyl)phenyl]-3-hydroxypropyl}-7-(2-hydroxyethyl)-N-methyl-1-(2-methylphenyl)-6-oxo-octahydropyrrolo[1,2-a]piperazine-2-carboxamide] was tested. Which IC50 did it give?
A: Its IC50 is 0.2 nM.

Q: For `Cc1ccccc1C1C2CC(CCO)(CCO)CN2CCN1C(=O)N(C)[C@H](C)c1cc(C(F)(F)F)cc(C(F)(F)F)c1` (single isomer, unassigned) [Compound 59], which IC50 is on record?
A: Its IC50 is 60.3 nM.

Q: With `Cc1ccccc1C1C2CC(CO)CN2CCN1C(=O)N(C)[C@H](C)c1cc(C(F)(F)F)cc(C(F)(F)F)c1` (single isomer, unassigned) [Compound 70] as the compound, how does the IC50 read?
A: Its IC50 is 66.1 nM.
